Reference: US12453776B2, “Lipids and compositions for the delivery of therapeutics” (ARBUTUS BIOPHARMA CORPORATION, priority 2008, dated 2025)

System: Factor VII
Assay: In vivo FVII knockdown by FVII siRNA lipid formulations (chromogenic Factor VII assay, serum 24 h after i.v. dosing)
Settings: female C57Bl/6 mice, i.v. tail vein, cationic lipid/DSPC/cholesterol/PEG-lipid 40/10/40/10 with FVII siRNA, no unit at the values, method gives ED50 in mg/kg
Description: Cationic lipid containing particles were made using the preformed vesicle method. Cationic lipid, DSPC, cholesterol and PEG-lipid were solubilised in ethanol at a molar ratio of 40/10/40/10, respectively. The lipid mixture was added to an aqueous buffer (50 mM citrate, pH 4) with mixing to a final ethanol and lipid concentration of 30% (vol/vol) and 6.1 mg/mL respectively and allowed to equilibrate at room temperature for 2 min before extrusion. The hydrated lipids were extruded through two stacked 80 nm pore-sized filters (Nuclepore) at 22° C. using a Lipex Extruder (Northern Lipids, Vancouver, BC) until a vesicle diameter of 70-90 nm, as determined by Nicomp analysis, was obtained. This generally required 1-3 passes.
The FVII siRNA (solubilised in a 50 mM citrate, pH 4 aqueous solution containing 30% ethanol) was added to the vesicles, pre-equilibrated to 35° C., at a rate of ˜5 mL/min with mixing. […] The final encapsulated siRNA-to-lipid ratio was determined after removal of unencapsulated siRNA using size-exclusion spin columns or ion exchange spin columns.
Test formulations were initially assessed for their FVII knockdown in female 7-9 week old, 15-25 g, female C57Bl/6 mice at 0.1, 0.3, 1.0 and 5.0 mg/kg with 3 mice per treatment group. […] Mice were weighed and the appropriate dosing volumes calculated (10 μl/g body weight). […]

For `CCCCC/C=C\C/C=C\CCCCCCCCC(CCCCCCCC/C=C\C/C=C\CCCCC)OC(=O)CCCN(C(C)C)C(C)C` [DLin-M-C3-DIPA], which ED50 (dose resulting in a 50% reduction in plasma FVII levels compared to control animals) is on record?
The ED50 (dose resulting in a 50% reduction in plasma FVII levels compared to control animals) was 4.5 mg/kg.

How did the ED50 (dose resulting in a 50% reduction in plasma FVII levels compared to control animals) turn out when `CCCCC/C=C\C/C=C\CCCCCCCCC(CCCCCCCC/C=C\C/C=C\CCCCC)OC(=O)CCCN(CC)CC` [DLin-M-C3-DEA] was run?
Its ED50 (dose resulting in a 50% reduction in plasma FVII levels compared to control animals) is 0.3 mg/kg.
